According to PubChem BioAssay AID623948 (Vanderbilt Specialized Chemistry Center, 2012):
The source made the active and inactive calls.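 How the source made its calls: active means compound shifting the acetylcholine potency curve by more than threefold; inactive means the rest.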

Biological target: Muscarinic acetylcholine receptor M4 (Homo sapiens) (UniProt P08173)
Assay: human M4 positive allosteric modulation fold shift – CHO cells, Gqi5 chimera, calcium mobilization, mechanism study, SAR follow-up (AID 623948)
Details: CHO hM4/Gqi5 calcium mobilization; for outcome / fold shift: ACh fold shift; for fold shift / % ACh max: at 30 µM, stronger effect = higher value; for % ACh max: measured here: ACh max response with compound

Muscarinic acetylcholine receptor M4 (Homo sapiens), sequence (P08173 whole entry, looked up): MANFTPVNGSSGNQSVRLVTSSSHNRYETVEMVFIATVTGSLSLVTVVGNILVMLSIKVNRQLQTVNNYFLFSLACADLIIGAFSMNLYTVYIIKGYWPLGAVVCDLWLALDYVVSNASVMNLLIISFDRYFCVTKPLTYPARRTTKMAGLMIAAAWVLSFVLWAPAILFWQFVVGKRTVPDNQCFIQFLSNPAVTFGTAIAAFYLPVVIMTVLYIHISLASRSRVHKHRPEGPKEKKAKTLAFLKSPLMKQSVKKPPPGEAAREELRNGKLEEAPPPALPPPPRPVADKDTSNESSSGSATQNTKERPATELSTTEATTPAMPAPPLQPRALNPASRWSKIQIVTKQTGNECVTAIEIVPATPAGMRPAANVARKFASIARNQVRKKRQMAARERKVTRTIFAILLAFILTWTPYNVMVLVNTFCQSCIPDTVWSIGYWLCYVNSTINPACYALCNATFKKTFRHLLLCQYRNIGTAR

| outcome | fold shift | % ACh max | Structure (SMILES) |
| --- | --- | --- | --- |
| active; potentiator |  |  | Cc1nc2sc(C(=O)NC3CCOCC3)c(N)c2c(C)c1Cl |
|  | 14.9 | 110% | COc1ccc(C)c2sc(NC(=O)c3ccncc3)nc12 |
| active; potentiator |  |  | Cc1nc2sc(C(=O)NCc3ccccc3)c(N)c2c(C)c1Cl |
| active; potentiator |  |  | Cc1nc2sc(C(=O)NCCc3ccncc3)c(N)c2c(C)c1Cl |
|  | 3.65 | 110% | COc1ccc(C)c2sc(NC(=O)c3cnccn3)nc12 |
| active; potentiator |  |  | Cc1nc2sc(C(=O)NCc3ccc4c(c3)OCO4)c(N)c2c(C)c1Cl |
| active; potentiator |  |  | Cc1nc2sc(C(=O)NCc3ccncn3)c(N)c2c(C)c1Cl |
|  | 2.93 | 105% | COc1ccc(C)c2sc(NC(=O)c3cccnc3)nc12 |
| active; potentiator |  |  | Cc1nc2sc(C(=O)NCc3ccncc3)c(N)c2c(C)c1Cl |
| active; potentiator |  |  | Cc1nc2sc(C(=O)NC3CC3)c(N)c2c(C)c1Cl |
|  | 3.63 | 112% | COc1ccc(C)c2sc(NC(=O)c3ccco3)nc12 |
| active; potentiator |  |  | Cc1nc2sc(C(=O)NCc3cccnc3)c(N)c2c(C)c1Cl |
| active; potentiator |  |  | Cc1nc2sc(C(=O)NCc3cccc(F)c3F)c(N)c2c(C)c1Cl |
|  | 5.98 | 106% | COc1ccc(C)c2sc(NC(=O)C3=COCCO3)nc12 |
| active; potentiator |  |  | Cc1nc2sc(C(=O)NCc3nccs3)c(N)c2c(C)c1Cl |
